Where a SMILES comes first, the peptide text is derived from it.
Test system: Listeria innocua 33090
Assay: MIC determination / agar spot assay of synthetic peptides
Format: cell-based
Conditions: synthetic peptides
Protocol: Synthetic samples of wild-type Pln-423, two variants Pln-S23E and Pln-H28R/H34E from this study (Pln-4 and Pln-7 on Fig. 2), and another high-activity variant Pln-S27D/K36N (discovered during a pilot study, data not shown) were tested on agar plates at varying concentrations.
MICs were determined as previously described, [35]. Synthetic peptides were obtained from Peptide 2.0, Inc. (Chantilly, VA) and dissolved in 0.1% acetic acid/water solution at the final concentration of 2.5 mg/ml. Listeria innocua 33090 was grown in TSB until the turbidity of the culture match that of McFarland standard 0.5 (∼OD600 = 0.11) and diluted to final concentration of 5×10^5 cfu/ml in 20 ml TSB soft agar (1.2%) per plate. Two-fold serial dilutions (starting at 128 µg/ml) for each peptide was carried out in ultra-pure deionized water and 5 µl aliquots of each dilution were spotted on TSB plates. After the plates were incubated for 1 h at room temperature, they were placed at 37°C for overnight incubation. This experiment was performed in triplicate and the MIC was calculated as the lowest peptide concentration that formed a visible growth inhibition zone.

Molecule	MIC fold lower than wild-type Pln-423
CC(C)C[C@H](NC(=O)[C@H](Cc1c[nH]cn1)NC(=O)[C@H](CC(=O)O)NC(=O)[C@@H](NC(=O)[C@H](CO)NC(=O)[C@H](CS)NC(=O)[C@H](CO)NC(=O)[C@H](Cc1ccccc1)NC(=O)[C@H](C)NC(=O)[C@H](CCC(N)=O)NC(=O)CNC(=O)[C@H](Cc1c[nH]c2ccccc12)NC(=O)[C@H](CC(N)=O)NC(=O)[C@@H](NC(=O)[C@H](CO)NC(=O)[C@H](CS)NC(=O)[C@H](CO)NC(=O)[C@H](Cc1c[nH]cn1)NC(=O)[C@H](CCCCN)NC(=O)CNC(=O)[C@H](CS)NC(=O)[C@@H](NC(=O)[C@@H](NC(=O)CNC(=O)[C@H](CC(N)=O)NC(=O)CNC(=O)[C@H](Cc1ccc(O)cc1)NC(=O)[C@H](Cc1ccc(O)cc1)NC(=O)[C@@H](N)CCCCN)C(C)C)[C@@H](C)O)C(C)C)C(C)C)C(=O)N[C@@H](C)C(=O)N[C@@H](CC(N)=O)C(=O)N[C@@H](Cc1ccccc1)C(=O)NCC(=O)N[C@@H](Cc1c[nH]cn1)C(=O)NCC(=O)N[C@@H](CC(N)=O)C(=O)N[C@@H](CS)C(=O)O [PLN-S27D/K36N] (H-KYYGNGVTCGKHSCSVNWGQAFSCSVDHLANFGHGNC-OH; N-terminus and C-terminus assumed)	2 fold
CC(C)C[C@H](NC(=O)[C@H](CCCNC(=N)N)NC(=O)[C@H](CO)NC(=O)[C@@H](NC(=O)[C@H](CO)NC(=O)[C@H](CS)NC(=O)[C@H](CO)NC(=O)[C@H](Cc1ccccc1)NC(=O)[C@H](C)NC(=O)[C@H](CCC(N)=O)NC(=O)CNC(=O)[C@H](Cc1c[nH]c2ccccc12)NC(=O)[C@H](CC(N)=O)NC(=O)[C@@H](NC(=O)[C@H](CO)NC(=O)[C@H](CS)NC(=O)[C@H](CO)NC(=O)[C@H](Cc1c[nH]cn1)NC(=O)[C@H](CCCCN)NC(=O)CNC(=O)[C@H](CS)NC(=O)[C@@H](NC(=O)[C@@H](NC(=O)CNC(=O)[C@H](CC(N)=O)NC(=O)CNC(=O)[C@H](Cc1ccc(O)cc1)NC(=O)[C@H](Cc1ccc(O)cc1)NC(=O)[C@@H](N)CCCCN)C(C)C)[C@@H](C)O)C(C)C)C(C)C)C(=O)N[C@@H](C)C(=O)N[C@@H](CC(N)=O)C(=O)N[C@@H](Cc1ccccc1)C(=O)NCC(=O)N[C@@H](CCC(=O)O)C(=O)NCC(=O)N[C@@H](CCCCN)C(=O)N[C@@H](CS)C(=O)O [PLN-H28R/H34E] (H-KYYGNGVTCGKHSCSVNWGQAFSCSVSRLANFGEGKC-OH; N-terminus and C-terminus assumed)	2 fold

Test system: Listeria innocua 33090
Assay: colony overlay assay of peptide-secreting E. coli clones (library screening and re-test)
Format: cell-based
Set-up: key: higher activity group (H); equal activity group (E); lower activity group (L)
Conditions: library screening; selected colonies pooled by zone size; peptides identified by 454 sequencing, full-length sequences with minimum 20 reads
Outline: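 Pln-423 mutant library expressed periplasmically in leaky E. coli JE5505 (pFLAG-CTS); colonies grown 24 h at 37°C, then overlaid with TSB soft agar containing 1 mM IPTG and L. innocua ATCC 33090 (OD600 = 0.03) and incubated overnight at 30°C. Activity scored by inhibition-zone size versus wild-type Pln-423; hits re-tested after 4 h regrowth.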

Molecule	activity group by size of inhibition zone compared to wild-type Pln-423
KYYGNGVTCGKHSCSVNWGQAFSCSVSNLANFGHGRC* [Pep-2_6829]	L
KYYGNGVTCGKHSCSVNWGQAFVCSVDHLANFGHGKC* [Pep-2_3644]	E
KYYGNGVTCGKHSCSVNWGQAFSCSVSHLANFGHGWC* [Pep-1_114]	L
KYYGNGVTCGKHSCSVNWGQAFSCSVAHFANLGHGKC* [GROUP L-UM-30]	L
KYYGNGVTCGKHSCSVNWGQAFECSVSHIANFGHGKC* [Pep-2_3442]	E and H
KYYGNGVTCGKHSCSVNWGQAFSCSIHHLANFGHGKC* [Pep-2_5914]	L
KYYGNGVTCGKHSCSVNWGQAFNCSVENLANFGHGKC* [GROUP H-UM-3]	H
KYYGNGVTCGKHSCSVNWGSAFSCSVSHLANFGEGSC* [GROUP L-UM-24]	L
KYYGNGVTCGKHSCSVNWGTAFSCSISHLANFGHGKC* [Pep-2_1588]	E
KYYGNGVTCGKHSCSVNWGQAFSCSASHLANFGHGKC* [Pep-1_53]	L
KYYGNGVTCGKHSCSVNWGKAFSCSVSMLANFGHGKC* [Pep-2_1384]	L
KYYGNGVTCGKHSCSVNWGQAFSCSVEHLANFGHGGC* [Pep-2_6077]	E and H
KYYGNGVTCGKHSCSVNWGHAFSCSVSHLANFGHGHC* [Pep-2_11707]	L
KYYGNGVTCGKHSCSVNWGQAFKCSVIHLANFGHGKC* [Pep-2_3322]	L
KYYGNGVTCGKHSCSVNWGQAFSCSVSHLANFGMGEC* [Pep-2_10826]	H
KYYGNGVTCGKHSCSVNWGQAFSCSVSHLANFGRGKC* [Pep-1_97]	L

Molecule	activity group by size of inhibition zone compared to wild-type Pln-423
KYYGNGVTCGKHSCSVNWGQAFSCSVEHLANFGHIKC* [Pep-2_6070]	L
KYYGNGVTCGKHSCSVNWGQAFCCSVSHLANFGHGKC* [GROUP L-UM-17]	L
KYYGNGVTCGKHSCSVNWGQAFSCSVEHLANFGHGHC* [Pep-2_6073]	E
KYYGNGVTCGKHSCSVNWGQAFSCSVSHLANFGHNWC* [Pep-2_12339]	E
KYYGNGVTCGKHSCSVNWGQAFECSVSHLATFGHGKC* [Pep-2_3453]	E
KYYGNGVTCGKHSCSVNWGQAFSCAVSHLANFGHGKC* [Pep-1_47]	L
KYYGNGVTCGKHSCSVNWGQAFSCSVSHLANFGIGLC* [GROUP L-UM-3]	L
KYYGNGVTCGKHSCSVNWGQAFSCSVSILANFGHGKC* [GROUP L-UM-6]	L
KYYGNGVTCGKHSCSVNWGQAFSCSVTHIANFGHGKC* [Pep-2_6142]	L
KYYGNGVTCGKHSCSVNWGQSFSCSFSHLANFGHGKC* [Pep-2_5559]	L
KYYGNGVTCGKHSCSVNWGQAFSCSMSRLANFGHGKC* [Pep-2_6562]	L
KYYGNGVTCGKHSCSVNWGQAFSCSVSHLANFGHGSC* [Pep-1_111]	L and E
KYYGNGVTCGKHSCSVNWGQAFKCSVSLLANFGHGKC* [Pep-2_3328]	L
KYYGNGVTCGKHSCSVNWGVAFSCSVSHLANFGHGWC* [Pep-2_1758]	L
KYYGNGVTCGKHSCSVNWGQAFVCSVSHLANFGHGTC* [Pep-2_3699]	E and H
